Experimental data reported in US20240245711A1, “A 19-NOR C3,3-DISUBSTITUTED C21-N-PYRAZOLYL STEROID FOR THE TREATMENT OF MAJOR DEPRESSIVE DISORDER” (Sage Therapeutics, Inc., priority 2021, published 2024).
Values joined by “and” are separate entries in the source; they are usually repeats but may differ in a detail not shown here. Identical values can stand only once.

Test system: adult subjects with Major Depressive Disorder
Assay: Phase 3 open-label 1-year study: HAM-D total score, response and remission
Assay type: in vivo, human
Settings: for HAM-D Total Score, Mean Percent Change from Period-Specific Baseline / HAM-D Total Score, Mean Change from Period-Specific Baseline: Low Dose Cohort (FAS); for HAM-D Remission / HAM-D Response / HAM-D total score, Mean % CFB ± SD / HAM-D total score, Mean CFB ± SD: Study Period 1, safety set, 30 mg Cohort (N = 725)
Source text: Secondary Objective: To assess the need for re-treatment with Compound (1) following initial treatment in adults with MDD currently experiencing an MDE over a 1-year period, and to assess the response of initial treatment and re-treatment(s) with Compound (1) following an initial 2-week treatment period in adults with MDD currently experiencing an MDE over a 1-year period.
Secondary Endpoints: The need for re-treatment with Compound (1) as assessed by: time to first re-treatment (Kaplan-Meier curves), number of subjects achieving the requirements for re-treatment, number of re-treatment cycles for each subject, the response of initial treatment and/or re-treatment as assessed by: change from baseline in the 17-item Hamilton Rating Scale for Depression (HAM-D) total score at the end of each 14-day treatment (initial and/or re-treatment) period, HAM-D response at the end of each 14-day treatment (initial and/or re-treatment) period, defined as a ≥50% reduction in HAM-D score from baseline, HAM-D remission at the end of each 14-day treatment (initial and/or re-treatment) period, defined as HAM-D total score≤7, Clinical Global Impression-Improvement (CGI-I) response, defined as “much improved” or “very much improved”, at the end of each 14-day treatment (initial and/or re-treatment) period, change from baseline in Clinical Global Impression-Severity (CGI-S) score at the end of each 14-day treatment (initial and/or re-treatment) period.
Study Population: Subjects were 18-75 years old, diagnosed with major depressive disorder (MDD) with a MADRS total score of ≥28 and a HAM-D total score of ≥20 at Screening and Day 1 (prior to dosing).
Treatment Groups: The 30 mg and 50 mg dose groups were separated by time of enrollment. The study is comprised of two cohorts: one with Compound (1) 30 mg as a starting dose (30 mg Cohort: n=725), an initial cohort with Compound (1) 50 mg as a starting dose (50 mg Cohort: n=199). A patient receiving Compound (1) 30 mg could be dose reduced to 20 mg and patients receiving Compound (1) 50 mg could be dose reduced to 40 mg (based on tolerability). In all cohorts, Compound (1) is self-administered by patients as an oral therapy once nightly with food for 14 days.
Eligible subjects were given Compound (1)—to be taken at home in the evening with meal.
The cohorts pertaining to the different doses that the subjects received were defined as following: • 50 mg cohort: This cohort includes subjects who have initiated treatment with 50 mg and received re-treatment with 50 mg only. • 30 mg cohort: This cohort includes subjects who have initiated treatment with 30 mg regardless of the dose they have received in re-treatments. • Low dose cohort: This cohort includes subjects who have initiated treatment with 30 mg and received re-treatment with 30 mg only. • Dose switch cohort: This cohort includes subjects who have received initial treatment with 30 mg and at least one subsequent re-treatment with 50 mg. • Study Period X: starts on the date of the first dose of Compound (1) in cycle X and goes up to one day prior to the first dose of the next cycle. In some embodiments, X is any number from 1 to 5. • Treatment Period X: starts on the date of the first dose of Compound (1) in cycle X and goes up to one day after the last dose in cycle X. In some embodiments, X is any number from 1 to 5. • Treatment Cycle X: starts on the date of the first dose of Compound (1) in cycle X and goes up to 14 days after the last dose in cycle X. The treatment cycles may be denoted as C1-C5. • Observation period X: starts the day after Treatment Cycle X ends and goes up to one day prior to the start of next treatment cycle. In some embodiments, X is any number from 1 to 5.
Analysis Sets: The safety set was defined as all subjects who were administered study drug. The period-specific safety set includes subjects in the safety set who were administered study drug in the corresponding treatment cycle. […]

[1] = subjects dosed in Cycle 4 (43), Cycle 1, Day 28
[2] = subjects dosed in Cycle 4 (43), Cycle 2, Day 15
[3] = subjects dosed in Cycle 4 (43), Cycle 2, Day 28
[4] = subjects dosed in Cycle 4 (43), Cycle 3, Day 15
[5] = subjects dosed in Cycle 4 (43), Cycle 3, Day 28
[6] = subjects dosed in Cycle 4 (43), Cycle 4, Day 15
[7] = subjects dosed in Cycle 4 (43), Cycle 4, Day 28
[8] = subjects dosed in Cycle 5 (20), Cycle 1, Day 15
[9] = subjects dosed in Cycle 5 (20), Cycle 1, Day 28
[10] = subjects dosed in Cycle 5 (20), Cycle 2, Day 15
[11] = subjects dosed in Cycle 5 (20), Cycle 2, Day 28
[12] = subjects dosed in Cycle 5 (20), Cycle 3, Day 15
[13] = subjects dosed in Cycle 5 (20), Cycle 3, Day 28
[14] = subjects dosed in Cycle 5 (20), Cycle 4, Day 15
[15] = subjects dosed in Cycle 5 (20), Cycle 4, Day 28
[16] = subjects dosed in Cycle 5 (20), Cycle 5, Day 28

With `C[C@@]1(O)CC[C@H]2[C@H](CC[C@@H]3[C@@H]2CC[C@]2(C)[C@@H](C(=O)Cn4cc(C#N)cn4)CC[C@@H]32)C1` [Compound (1), 1-(2-((3R,5R,8R,9R,10S,13S,14S,17S)-3-hydroxy-3,13-dimethylhexadecahydro-1H-cyclopenta[a]phenanthren-17-yl)-2-oxoethyl)-1H-pyrazole-4-carbonitrile] the “HAM-D Total Score, Mean Percent Change from Period-Specific Baseline” value (shortened to “HAM-D Total Score, Mean Percent Change”) (subjects dosed in Cycle 4 (43), Cycle 1, Day 15) was −68.2, the “HAM-D Total Score, Mean Change from Period-Specific Baseline” value (from here on “HAM-D Total Score, Mean Change”) [1] was −13.0 and the “HAM-D Total Score, Mean Percent Change” value [1] was −52.0. For the same compound, the “HAM-D Total Score, Mean Change” value [2] was −12.1, the “HAM-D Total Score, Mean Percent Change” value [2] was −49.6 and the “HAM-D Total Score, Mean Change” value [3] was −10.4. The “HAM-D Total Score, Mean Percent Change” value [3] was −42.4, the “HAM-D Total Score, Mean Change” value [4] was −12.7 and the “HAM-D Total Score, Mean Percent Change” value [4] was −54.1. The “HAM-D Total Score, Mean Change” value [5] was −11.1, the “HAM-D Total Score, Mean Percent Change” value [5] was −46.9 and the “HAM-D Total Score, Mean Change” value [6] was −11.7. The “HAM-D Total Score, Mean Percent Change” value [6] was −50.0, the “HAM-D Total Score, Mean Change” value [7] was −9.9 and the “HAM-D Total Score, Mean Percent Change” value [7] was −41.9. The “HAM-D Total Score, Mean Change” value [8] was −16.5, the “HAM-D Total Score, Mean Percent Change” value [8] was −66.9 and the “HAM-D Total Score, Mean Change” value [9] was −11.3. For the same compound, the “HAM-D Total Score, Mean Percent Change” value [9] was −45.7, the “HAM-D Total Score, Mean Change” value [10] was −11.1 and the “HAM-D Total Score, Mean Percent Change” value [10] was −45.1. For the same compound, the “HAM-D Total Score, Mean Change” value [11] was −9.2, the “HAM-D Total Score, Mean Percent Change” value [11] was −37.8 and the “HAM-D Total Score, Mean Change” value [12] was −11.9. The “HAM-D Total Score, Mean Percent Change” value [12] was −51.5, the “HAM-D Total Score, Mean Change” value [13] was −10.7 and the “HAM-D Total Score, Mean Percent Change” value [13] was −46.1. The “HAM-D Total Score, Mean Change” value [14] was −11.6, the “HAM-D Total Score, Mean Percent Change” value [14] was −48.9 and the “HAM-D Total Score, Mean Change” value [15] was −7.7. For the same compound, the “HAM-D Total Score, Mean Percent Change” value [15] was −32.6, the “HAM-D Total Score, Mean Change” value (subjects dosed in Cycle 5 (20), Cycle 5, Day 15) was 17, −11.6/— and the “HAM-D Total Score, Mean Change” value [16] was −7.1. For the same compound, the “HAM-D Total Score, Mean Percent Change” value [16] was −30.6, the “Withdrawn in Treatment Cycle 1: Exit for non-response, n (%)” value (Low Dose Cohort (n = 645)) was 146 (22.6%) and the “HAM-D Remission” value (Day 8) was “(17.8%)”. For the same compound, the “HAM-D Response” value (Day 8) was 295/704 (41.9%), the “HAM-D total score, Mean % CFB ± SD” value (Day 8) was −42.9 ± 25.68% and the “HAM-D total score, Mean CFB ± SD” value (Day 8) was −10.9 ± 6.75. The “HAM-D total score, Mean % CFB ± SD” value (Day 15) was −60.0 ± 25.61%, the “HAM-D total score, Mean CFB ± SD” value (Day 15) was −15.2±7.1 and −15.2 ± 7.07 and the “HAM-D Remission” value (Day 28) was “(32.6%)”. For the same compound, the “HAM-D Response” value (Day 28) was 372/681 (54.6%), the “HAM-D total score, Mean % CFB ± SD” value (Day 28) was −51.9 ± 29.96% and the “HAM-D total score, Mean CFB ± SD” value (Day 28) was −13.3 ± 8.07. The “HAM-D Remission” value (Day 70) was “(30.0%)”, the “HAM-D Response” value (Day 70) was 193/384 (50.3%) and the “HAM-D total score, Mean % CFB ± SD” value (Day 70) was −46.6 ± 34.25%. The “HAM-D total score, Mean CFB ± SD” value (Day 70) was −12.1 ± 9.12 and the “HAM-D Remission” value (Day 126) was “(47.3%)”.
